Laboratory results taken from patent publication US12077503B2, “Substituted cyclic amides and their use as herbicides” (FMC CORPORATION, priority 2015, dated 2024).

How the values were obtained:
Type in all cases: in vivo
Kochia (Kochia scoparia) [1] = experiment: Test A preemergence; settings: for Plant response rating, Kochia: 125 g ai/ha; for Kochia plant response rating (0 to 100 scale, 0 is no effect, 100 is complete control): 500 g ai/ha, visual injury approx. 10 d
How it was run: (§1)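 Each rating is a visual injury score from 0 to 100 given about 10 d after treatment, judged against untreated controls kept alongside in the greenhouse. In loam soil–sand blend, seeds got a preemergence directed soil spray, while postemergence plants were 2 to 10 cm tall at spraying.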

[2] = system: barnyardgrass (Echinochloa crus-galli); experiment: Test A preemergence; settings: for Plant response rating, Barnyardgrass: 125 g ai/ha; for Barnyardgrass plant response rating (0 to 100 scale, 0 is no effect, 100 is complete control): 500 g ai/ha, visual injury approx. 10 d
How it was run: as §1

[3] = system: giant foxtail (Setaria faberii); experiment: Test A preemergence; settings: for Plant response rating, Foxtail, Giant: 125 g ai/ha; for Foxtail, Giant plant response rating (0 to 100 scale, 0 is no effect, 100 is complete control): 500 g ai/ha, visual injury approx. 10 d
How it was run: as §1

[4] = system: pigweed (Amaranthus retroflexus); experiment: Test A preemergence; settings: for Plant response rating, Pigweed: 125 g ai/ha; for Pigweed plant response rating (0 to 100 scale, 0 is no effect, 100 is complete control): 500 g ai/ha, visual injury approx. 10 d
[5] = system: ragweed (common ragweed, Ambrosia elatior); experiment: Test A preemergence; settings: for Plant response rating, Ragweed: 125 g ai/ha; for Ragweed plant response rating (0 to 100 scale, 0 is no effect, 100 is complete control): 500 g ai/ha, visual injury approx. 10 d
How it was run: as §1

[6] = system: ryegrass, Italian (Italian ryegrass, Lolium multiflorum); experiment: Test A preemergence; settings: for Plant response rating, Ryegrass, Italian: 125 g ai/ha; for Ryegrass, Italian plant response rating (0 to 100 scale, 0 is no effect, 100 is complete control): 500 g ai/ha, visual injury approx. 10 d
How it was run: as §1

[7] = system: Galium (catchweed bedstraw, Galium aparine); experiment: Test A postemergence
How it was run: as §1

Kochia (Kochia scoparia) [8] = experiment: Test A postemergence
How it was run: as §1

[9] = system: barnyardgrass (Echinochloa crus-galli); experiment: Test A postemergence
How it was run: as §1

[10] = system: blackgrass (Alopecurus myosuroides); experiment: Test A postemergence
How it was run: as §1

corn (Zea mays) = experiment: Test A postemergence
How it was run: as §1

[11] = system: giant foxtail (Setaria faberii); experiment: Test A postemergence
How it was run: as §1

[12] = system: pigweed (Amaranthus retroflexus); experiment: Test A postemergence
How it was run: as §1

[13] = system: ragweed (common ragweed, Ambrosia elatior); experiment: Test A postemergence
How it was run: as §1

[14] = system: ryegrass, Italian (Italian ryegrass, Lolium multiflorum); experiment: Test A postemergence
How it was run: as §1

[15] = system: wheat (Triticum aestivum); experiment: Test A postemergence
How it was run: as §1

[16] = system: barnyardgrass (Echinochloa crus-galli); experiment: Test B flooded paddy test; settings: Flood, 250 g ai/ha; 0 to 100 scale where 0 is no effect and 100 is complete control; 13 to 15 d
How it was run: (§2)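 Visual ratings (0 none to 100 complete control) are relative to untreated plants, taken 13–15 d after treatment in a greenhouse. Test material went straight into floodwater standing 3 cm above the soil, kept constant, on plants at the 2-leaf stage.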

[17] = system: ducksalad (Heteranthera limosa); experiment: Test B flooded paddy test; settings: Flood, 250 g ai/ha; 0 to 100 scale where 0 is no effect and 100 is complete control; 13 to 15 d
How it was run: as §2

rice (Oryra sativa) = experiment: Test B flooded paddy test; settings: Flood, 250 g ai/ha; 0 to 100 scale where 0 is no effect and 100 is complete control; 13 to 15 d
How it was run: as §2

[18] = system: sedge, umbrella (small-flower umbrella sedge, Cyperus difformis); experiment: Test B flooded paddy test; settings: Flood, 250 g ai/ha; 0 to 100 scale where 0 is no effect and 100 is complete control; 13 to 15 d
How it was run: as §2

[19] = Preemergence, visual injury after approximately 10 d, 0 to 100 scale where 0 is no effect and 100 is complete control
[20] = 125 g ai/ha, postemergence, visual rating after approx. 10 d, 0 to 100 scale (0 no effect, 100 complete control)
[21] = Postemergence, 500 g ai/ha, 0 to 100 scale where 0 is no effect and 100 is complete control
[22] = preemergence, 0 to 100 scale (0 no effect, 100 complete control)
[23] = 125 g ai/ha, postemergence, visual injury rating on 0 to 100 scale (0 no effect, 100 complete control), approx. 10 d
[24] = 500 g ai/ha, postemergence, 0 to 100 scale, 0 no effect, 100 complete control

O=C(Nc1ccccc1F)C1C(=O)N(c2ccc([N+](=O)[O-])cc2)CC1c1cccc(C(F)(F)F)c1 (stereo not drawn) [Compound 602]
Plant response rating, Kochia (Kochia (Kochia scoparia) [1]; [19]): 0
Kochia plant response rating (0 to 100 scale, 0 is no effect, 100 is complete control) (Kochia (Kochia scoparia) [1]; Preemergence): 0
Plant response rating, Barnyardgrass [2, 19]: 0
Barnyardgrass plant response rating (0 to 100 scale, 0 is no effect, 100 is complete control) ([2]; Preemergence): 0
Plant response rating, Foxtail, Giant [3, 19]: 0
Foxtail, Giant plant response rating (0 to 100 scale, 0 is no effect, 100 is complete control) ([3]; Preemergence): 0
Plant response rating, Pigweed [4, 19]: 0
Pigweed plant response rating (0 to 100 scale, 0 is no effect, 100 is complete control) ([4]; Preemergence): 0
Plant response rating, Ragweed [5, 19]: 0
Ragweed plant response rating (0 to 100 scale, 0 is no effect, 100 is complete control) ([5]; Preemergence): 0
Plant response rating, Ryegrass, Italian [6, 19]: 0
Ryegrass, Italian plant response rating (0 to 100 scale, 0 is no effect, 100 is complete control) ([6]; Preemergence): 0
Plant response rating, Galium [7, 20]: 0
Plant response rating, Galium [7, 21]: 0
Plant response rating, Kochia (Kochia (Kochia scoparia) [8]; [20]): 0
Plant response rating, Kochia (Kochia (Kochia scoparia) [8]; [21]): 0
Plant response rating, Barnyardgrass [9, 20]: 0
Plant response rating, Barnyardgrass [9, 21]: 0
Plant response rating, Blackgrass [10, 20]: 0
Plant response rating, Blackgrass [10, 21]: 0
Plant response rating, Corn (corn (Zea mays); [20]): 0
Plant response rating, Corn (corn (Zea mays); [21]): 0
Plant response rating, Foxtail, Giant [11, 20]: 0
Plant response rating, Foxtail, Giant [11, 21]: 0
Plant response rating, Pigweed [12, 20]: 0
Plant response rating, Pigweed [12, 21]: 0
Plant response rating, Ragweed [13, 20]: 0
Plant response rating, Ragweed [13, 21]: 0
Plant response rating, Ryegrass, Italian [14, 20]: 0
Plant response rating, Ryegrass, Italian [14, 21]: 0
Plant response rating, Wheat [15, 20]: 0
Plant response rating, Wheat [15, 21]: 0
Plant response rating, Barnyardgrass [16]: 0
Plant response rating, Ducksalad [17]: 30
Plant response rating, Rice (rice (Oryra sativa)): 0
Plant response rating, Sedge, Umbrella [18]: 0

CN1CC(c2ccc(Cl)cc2)C(C(=O)Nc2cccc(F)c2F)C1=O (stereo not drawn) [Compound 434]
Plant response rating, Kochia (Kochia (Kochia scoparia) [1]; [22]): 70
Kochia plant response rating (0 to 100 scale, 0 is no effect, 100 is complete control) (Kochia (Kochia scoparia) [1]; Preemergence): 80
Plant response rating, Barnyardgrass [2, 22]: 90
Barnyardgrass plant response rating (0 to 100 scale, 0 is no effect, 100 is complete control) ([2]; Preemergence): 90
Plant response rating, Foxtail, Giant [3, 22]: 90
Foxtail, Giant plant response rating (0 to 100 scale, 0 is no effect, 100 is complete control) ([3]; Preemergence): 100
Plant response rating, Pigweed [4, 22]: 80
Pigweed plant response rating (0 to 100 scale, 0 is no effect, 100 is complete control) ([4]; Preemergence): 90
Plant response rating, Ragweed [5, 22]: 50
Ragweed plant response rating (0 to 100 scale, 0 is no effect, 100 is complete control) ([5]; Preemergence): 60
Plant response rating, Ryegrass, Italian [6, 22]: 60
Ryegrass, Italian plant response rating (0 to 100 scale, 0 is no effect, 100 is complete control) ([6]; Preemergence): 90
Galium plant response rating [7, 23]: 60
Plant response rating, Galium [7, 24]: 60
Kochia plant response rating (Kochia (Kochia scoparia) [8]; [23]): 70
Plant response rating, Kochia (Kochia (Kochia scoparia) [8]; [24]): 70
Barnyardgrass plant response rating [9, 23]: 90
Plant response rating, Barnyardgrass [9, 24]: 90
Blackgrass plant response rating [10, 23]: 50
Plant response rating, Blackgrass [10, 24]: 50
Corn plant response rating (corn (Zea mays); [23]): 0
Plant response rating, Corn (corn (Zea mays); [24]): 70
Foxtail, Giant plant response rating [11, 23]: 90
Plant response rating, Foxtail, Giant [11, 24]: 90
Pigweed plant response rating [12, 23]: 60
Plant response rating, Pigweed [12, 24]: 70
Ragweed plant response rating [13, 23]: 20
Plant response rating, Ragweed [13, 24]: 20
Ryegrass, Italian plant response rating [14, 23]: 0
Plant response rating, Ryegrass, Italian [14, 24]: 50
Wheat plant response rating [15, 23]: 20
Plant response rating, Wheat [15, 24]: 70
Plant response rating, Barnyardgrass [16]: 70
Plant response rating, Ducksalad [17]: 100
Plant response rating, Rice (rice (Oryra sativa)): 0
Plant response rating, Sedge, Umbrella [18]: 0
